Experiments:
Type in all cases: biochemical
[1] = molecular target: T1, FGFR1 (Homo sapiens, UniProt P11362); assay: ELISA kinase assay, FGFR1 enzymatic activity
T1 construct: purchased Millipore
Method: The effects of compounds on the activities of indicated (FGFR1 and c-Met) kinases were determined using enzyme-linked immunosorbent assays (ELISAs) with purified recombinant proteins. Briefly, 20 μg/mL poly (Glu, Tyr)4:1 (Sigma, St. Louis, MO, USA) was precoated in 96-well plates as a substrate. A 50-μL aliquot of 10 μmol/L ATP solution diluted in kinase reaction buffer (50 mmol/L HEPES (pH 7.4), 50 mmol/L MgCl2, 0.5 mmol/L MnCl2, 0.2 mmol/L Na3VO4, and 1 mmol/L DTT) was added to each well; 1 μL of various concentrations of compounds diluted in 1% DMSO (v/v) (Sigma) were then added to each reaction well. DMSO (1%, v/v) was used as the negative control. The kinase reaction was initiated by the addition of purified tyrosine kinase proteins FGFR1 (Millipore, Darmstadt, Germany) or c-Met (Millipore) diluted in 49 μL of kinase reaction buffer. After incubation for 60 min at 37 °C, the plate was washed three times with phosphate-buffered saline (PBS) containing 0.1% Tween 20 (T-PBS). Anti-phosphotyrosine (PY99) antibody (Sanra Cruz, Dallas, TX, USA) (100 μL; 1:500, diluted in 5 mg/mL bovine serum albumin (BSA) T-PBS) was then added. After a 30-min incubation at 37 °C, the plate was washed three times, and 100 μL of horseradish peroxidase-conjugated goat anti-mouse IgG (Calbiochem, Shanghai, China) (1:2000, diluted in 5 mg/mL BSA T-PBS) was added. The plate was then incubated at 37 °C for 30 min, and washed three times. A 100-μL aliquot of a solution containing 0.03% H2O2 and 2 mg/mL o-phenylenediamine in 0.1 mol/L citrate buffer (pH 5.5) was added. The reaction was terminated by the addition of 50 μL of 2 mol/L H2SO4 as the color changed, and the plate was analyzed using a multi-well spectrophotometer (SpectraMAX 190, Molecular Devices, Palo Alto, CA, USA) at 490 nm. The inhibition rate (%) was calculated using the following equation:IR = [1 − (A490/A490control)] × 100%.(1) where IR, A490, and A490control are the inhibition rate, the absorbance value of the tested compound at 490 nm, and the absorbance value of the negative control compound at 490 nm, respectively. The IC50 values were calculated from the inhibition curves in two separate experiments.

[2] = molecular target: EPH-A2 (Homo sapiens, UniProt P29317); assay: Kinase panel profiling
[3] = molecular target: Abl (Homo sapiens, UniProt P00519); assay: Kinase panel profiling
[4] = molecular target: T2, AXL (Homo sapiens, UniProt P30530); assay: Kinase panel profiling
T2 sequence (P30530 26-894): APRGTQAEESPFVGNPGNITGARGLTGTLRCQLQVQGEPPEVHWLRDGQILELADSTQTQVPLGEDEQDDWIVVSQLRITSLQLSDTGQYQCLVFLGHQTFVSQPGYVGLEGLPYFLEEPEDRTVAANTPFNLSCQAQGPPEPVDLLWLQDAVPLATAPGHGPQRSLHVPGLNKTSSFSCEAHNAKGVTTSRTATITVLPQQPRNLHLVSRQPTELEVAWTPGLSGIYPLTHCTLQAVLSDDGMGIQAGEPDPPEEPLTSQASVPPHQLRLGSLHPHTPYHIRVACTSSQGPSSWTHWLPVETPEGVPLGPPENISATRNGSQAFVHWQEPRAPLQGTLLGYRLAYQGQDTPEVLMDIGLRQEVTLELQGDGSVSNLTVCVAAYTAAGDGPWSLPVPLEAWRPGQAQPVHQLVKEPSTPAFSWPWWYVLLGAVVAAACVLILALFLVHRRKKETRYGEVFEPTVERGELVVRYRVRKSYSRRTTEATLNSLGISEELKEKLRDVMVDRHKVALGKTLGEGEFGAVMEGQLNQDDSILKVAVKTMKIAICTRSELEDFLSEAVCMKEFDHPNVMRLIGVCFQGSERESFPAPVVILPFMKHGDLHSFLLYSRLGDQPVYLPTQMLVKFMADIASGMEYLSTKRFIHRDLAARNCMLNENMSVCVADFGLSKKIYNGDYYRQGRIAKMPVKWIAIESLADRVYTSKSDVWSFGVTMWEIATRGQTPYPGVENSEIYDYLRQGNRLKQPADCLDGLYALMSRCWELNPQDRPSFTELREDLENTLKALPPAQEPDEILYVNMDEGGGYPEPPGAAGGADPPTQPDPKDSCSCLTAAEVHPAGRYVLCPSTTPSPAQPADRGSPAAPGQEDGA

Sequence of Abl (P00519 whole entry, species assumed): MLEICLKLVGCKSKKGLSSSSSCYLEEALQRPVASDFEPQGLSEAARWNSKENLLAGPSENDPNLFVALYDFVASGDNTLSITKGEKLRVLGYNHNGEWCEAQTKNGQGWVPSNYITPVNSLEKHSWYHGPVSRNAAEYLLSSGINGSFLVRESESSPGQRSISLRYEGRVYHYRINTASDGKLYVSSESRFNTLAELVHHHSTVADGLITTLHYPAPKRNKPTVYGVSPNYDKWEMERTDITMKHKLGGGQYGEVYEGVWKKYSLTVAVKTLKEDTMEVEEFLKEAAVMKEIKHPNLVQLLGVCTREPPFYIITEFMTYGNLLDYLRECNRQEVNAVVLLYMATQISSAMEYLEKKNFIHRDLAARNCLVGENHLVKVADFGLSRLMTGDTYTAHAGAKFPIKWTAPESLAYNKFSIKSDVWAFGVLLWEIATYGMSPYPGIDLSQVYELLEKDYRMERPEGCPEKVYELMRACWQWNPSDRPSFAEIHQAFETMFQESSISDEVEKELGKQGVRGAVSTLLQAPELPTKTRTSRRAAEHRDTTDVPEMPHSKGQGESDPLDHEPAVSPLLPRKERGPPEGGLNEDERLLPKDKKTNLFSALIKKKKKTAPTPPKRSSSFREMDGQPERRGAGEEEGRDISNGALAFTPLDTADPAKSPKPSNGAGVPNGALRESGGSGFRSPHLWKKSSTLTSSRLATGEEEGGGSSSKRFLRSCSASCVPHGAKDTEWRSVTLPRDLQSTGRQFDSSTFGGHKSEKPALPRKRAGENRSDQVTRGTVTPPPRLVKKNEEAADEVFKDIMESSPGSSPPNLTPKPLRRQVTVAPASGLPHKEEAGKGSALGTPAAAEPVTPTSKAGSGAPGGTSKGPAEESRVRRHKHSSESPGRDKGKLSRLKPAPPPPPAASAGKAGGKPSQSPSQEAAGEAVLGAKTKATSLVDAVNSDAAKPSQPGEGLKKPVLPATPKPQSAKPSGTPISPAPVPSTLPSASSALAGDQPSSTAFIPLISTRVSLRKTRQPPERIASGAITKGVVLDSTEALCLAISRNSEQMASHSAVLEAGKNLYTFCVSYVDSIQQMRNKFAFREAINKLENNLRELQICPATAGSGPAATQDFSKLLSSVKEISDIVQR
Sequence of EPH-A2 (P29317 24-976, species assumed): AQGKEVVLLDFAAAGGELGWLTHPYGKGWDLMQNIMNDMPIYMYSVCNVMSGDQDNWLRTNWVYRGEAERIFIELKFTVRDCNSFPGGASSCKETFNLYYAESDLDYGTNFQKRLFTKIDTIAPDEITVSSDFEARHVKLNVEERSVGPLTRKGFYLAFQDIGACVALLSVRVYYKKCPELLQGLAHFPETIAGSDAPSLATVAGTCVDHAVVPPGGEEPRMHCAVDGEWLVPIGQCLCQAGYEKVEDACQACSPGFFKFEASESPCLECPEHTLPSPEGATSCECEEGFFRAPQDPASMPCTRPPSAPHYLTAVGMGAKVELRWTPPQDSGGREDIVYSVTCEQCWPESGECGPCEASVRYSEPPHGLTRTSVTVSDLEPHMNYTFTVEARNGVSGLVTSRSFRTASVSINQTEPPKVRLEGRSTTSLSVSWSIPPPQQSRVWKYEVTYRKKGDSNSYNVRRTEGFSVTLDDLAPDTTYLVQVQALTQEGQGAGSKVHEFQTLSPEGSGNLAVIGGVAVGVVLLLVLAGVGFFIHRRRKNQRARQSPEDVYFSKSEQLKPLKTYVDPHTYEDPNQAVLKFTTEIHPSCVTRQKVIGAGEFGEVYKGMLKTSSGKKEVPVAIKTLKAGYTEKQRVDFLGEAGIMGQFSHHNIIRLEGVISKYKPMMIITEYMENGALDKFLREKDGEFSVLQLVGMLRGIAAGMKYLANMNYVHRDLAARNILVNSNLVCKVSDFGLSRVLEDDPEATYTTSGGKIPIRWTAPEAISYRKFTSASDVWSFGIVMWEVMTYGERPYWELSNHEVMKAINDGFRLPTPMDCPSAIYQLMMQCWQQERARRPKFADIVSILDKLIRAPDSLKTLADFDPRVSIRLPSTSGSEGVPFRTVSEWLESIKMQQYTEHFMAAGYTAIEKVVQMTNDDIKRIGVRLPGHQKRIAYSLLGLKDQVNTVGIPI
T1 sequence (P11362 22-822): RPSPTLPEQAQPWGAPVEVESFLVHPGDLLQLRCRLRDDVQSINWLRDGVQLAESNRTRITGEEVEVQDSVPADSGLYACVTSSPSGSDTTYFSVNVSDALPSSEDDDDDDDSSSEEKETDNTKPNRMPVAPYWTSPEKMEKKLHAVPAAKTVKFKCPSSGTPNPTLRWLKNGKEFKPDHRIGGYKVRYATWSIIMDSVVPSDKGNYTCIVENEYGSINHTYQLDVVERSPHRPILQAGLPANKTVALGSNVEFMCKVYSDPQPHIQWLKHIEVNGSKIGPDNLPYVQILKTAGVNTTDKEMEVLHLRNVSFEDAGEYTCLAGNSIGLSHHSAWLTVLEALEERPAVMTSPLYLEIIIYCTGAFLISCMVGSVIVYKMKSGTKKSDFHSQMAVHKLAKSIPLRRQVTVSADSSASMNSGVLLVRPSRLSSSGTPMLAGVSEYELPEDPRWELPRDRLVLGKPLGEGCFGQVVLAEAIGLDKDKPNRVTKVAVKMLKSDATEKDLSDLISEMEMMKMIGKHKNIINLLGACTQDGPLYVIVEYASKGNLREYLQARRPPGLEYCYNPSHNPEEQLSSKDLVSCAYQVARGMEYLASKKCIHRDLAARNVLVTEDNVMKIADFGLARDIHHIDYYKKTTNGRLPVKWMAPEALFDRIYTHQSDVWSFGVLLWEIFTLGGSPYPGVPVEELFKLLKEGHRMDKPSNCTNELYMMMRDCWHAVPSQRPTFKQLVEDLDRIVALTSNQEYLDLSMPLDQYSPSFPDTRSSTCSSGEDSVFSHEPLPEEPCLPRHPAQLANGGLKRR

## O=S(=O)(c1cn(CCF)cn1)n1ccc2ncc(-c3cn[nH]c3)nc21 [Compound 13, 5-((1-(2-fluoroethyl)-1H-imidazol-4-yl)sulfonyl)-3-(1H-pyrazol-4-yl)-5H-pyrrolo[2,3-b]pyrazine]
[1]; 0.01 μM (10 nM), mean of two separate experiments
  inhibition at 0.01 µM: > 90%
[1]; 0.1 μM, mean of two separate experiments
  inhibition at 0.1 µM: 91.7%
[1]; 1 μM, mean of two separate experiments
  inhibition at 1 µM: 100%
[1]; mean ± SD from two separate experiments
  IC50: 0.6 ± 0.2 nM
[2]; 10 nM
  inhibition at 0.01 µM: 0%
[2]; 100 nM
  inhibition at 0.1 µM: 0%
[2]; 1000 nM
  inhibition at 1 µM: 0%
[3]; 10 nM
  inhibition at 0.01 µM: 0%
[3]; 100 nM
  inhibition at 0.1 µM: 0%
[3]; 1000 nM
  inhibition at 1 µM: 0%
[4]; 10 nM
  inhibition at 0.01 µM: 1.1%
[4]; 100 nM
  inhibition at 0.1 µM: 2.9%
[4]; 1000 nM
  inhibition at 1 µM: -5.5%
